Laboratory results as given in ChEMBL document CHEMBL1144330, “Novel pyrazinone mono-amides as potent and reversible caspase-3 inhibitors” (Bioorg Med Chem Lett, 2005).

Legend:
[1] = molecular target: T1, Caspase-1 (Homo sapiens, UniProt P29466); assay: Inhibitory concentration against recombinant human caspase-1 in neuronal precursor (NT2) cells
T1 sequence (P29466 whole entry): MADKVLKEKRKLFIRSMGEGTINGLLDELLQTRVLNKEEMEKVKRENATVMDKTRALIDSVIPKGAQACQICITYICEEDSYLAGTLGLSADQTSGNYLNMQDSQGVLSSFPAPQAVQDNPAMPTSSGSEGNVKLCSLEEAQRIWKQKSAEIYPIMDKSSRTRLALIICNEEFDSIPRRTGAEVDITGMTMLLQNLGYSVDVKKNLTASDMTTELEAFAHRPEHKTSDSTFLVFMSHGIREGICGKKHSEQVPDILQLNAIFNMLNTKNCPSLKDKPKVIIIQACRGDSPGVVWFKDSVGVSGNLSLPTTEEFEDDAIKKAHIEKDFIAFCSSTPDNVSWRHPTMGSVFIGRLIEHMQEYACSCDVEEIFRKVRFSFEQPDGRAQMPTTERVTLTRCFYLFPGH

[2] = molecular target: Caspase-8 (Homo sapiens, UniProt Q14790); assay: Inhibitory concentration against recombinant human caspase-8 […]
[3] = molecular target: T2, Caspase-7 (Homo sapiens, UniProt P55210); assay: Inhibitory concentration against recombinant human caspase-7 […]
T2 sequence (P55210 whole entry): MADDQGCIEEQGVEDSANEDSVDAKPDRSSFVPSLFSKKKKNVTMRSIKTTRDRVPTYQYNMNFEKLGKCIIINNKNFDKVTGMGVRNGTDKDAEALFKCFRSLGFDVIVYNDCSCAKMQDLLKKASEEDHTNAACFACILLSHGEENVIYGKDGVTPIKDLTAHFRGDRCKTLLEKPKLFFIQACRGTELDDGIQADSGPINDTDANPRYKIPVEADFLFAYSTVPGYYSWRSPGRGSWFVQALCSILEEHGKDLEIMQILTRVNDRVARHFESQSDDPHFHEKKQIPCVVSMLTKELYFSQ

[4] = tested on: NT2; assay: Inhibitory concentration against camptothecin induced apoptosis in neuronal precursor (NT2) whole cells; assay type: functional, cell-based; conditions: Homo sapiens
[5] = molecular target: T3, Caspase-3 (Homo sapiens, UniProt P42574); assay: Inhibitory concentration against recombinant human caspase-3 in neuronal precursor (NT2) cells
T3 sequence (P42574 whole entry): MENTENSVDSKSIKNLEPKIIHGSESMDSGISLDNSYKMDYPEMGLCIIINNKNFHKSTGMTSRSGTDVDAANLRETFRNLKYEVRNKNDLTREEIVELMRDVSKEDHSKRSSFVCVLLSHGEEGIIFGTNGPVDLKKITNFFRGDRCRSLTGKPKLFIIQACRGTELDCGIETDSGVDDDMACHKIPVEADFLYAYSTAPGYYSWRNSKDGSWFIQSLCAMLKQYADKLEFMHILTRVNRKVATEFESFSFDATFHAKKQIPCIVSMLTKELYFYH

Caspase-8, sequence (Q14790 217-374 limits assumed): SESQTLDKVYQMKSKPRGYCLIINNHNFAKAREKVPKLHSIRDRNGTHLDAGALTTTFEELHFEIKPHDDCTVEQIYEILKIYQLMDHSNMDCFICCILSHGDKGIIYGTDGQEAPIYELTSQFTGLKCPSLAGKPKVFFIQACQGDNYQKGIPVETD
Caspase-8, sequence (Q14790 385-479 limits assumed): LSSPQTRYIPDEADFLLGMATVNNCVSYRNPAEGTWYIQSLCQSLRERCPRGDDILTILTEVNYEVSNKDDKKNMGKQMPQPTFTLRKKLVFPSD

Row | Compound | IC50 [1] [nM] | IC50 [2] [nM] | IC50 [3] [nM] | IC50 [4] [nM] | IC50 [5] [nM]
1 | CCC(C(=O)N[C@@H](CC(=O)O)C(=O)CSCc1ccccc1)n1ccnc(NCc2noc(C)n2)c1=O (stereo not given in full) | 1080 | 7560 | > 10000 | 8060 | 72
2 | CCC(C(=O)N[C@@H](CC(=O)O)C(=O)CSCc1ccccc1)n1ccnc(NCc2cc(C)no2)c1=O (stereo not given in full) | 230 | 3300 | 2540 | 6410 | 51
3 | CCCN(C)CNCC(=O)[C@H](CC(=O)O)NC(=O)C(CC)n1ccnc(NCc2nonc2C)c1=O (stereo not given in full) | 620 | > 10000 | 320 | 1420 | 17
4 | CCC(C(=O)N[C@@H](CC(=O)O)C(=O)CSCc1ccccc1)n1ccnc(NCCn2nc(C)cc2C)c1=O (stereo not given in full) | 1820 | 1660 | > 10000 | 9480 | 160
5 | CCC(C(=O)N[C@@H](CC(=O)O)C(=O)CSCc1ccccc1)n1ccnc(NCc2nc(C)no2)c1=O (stereo not given in full) | 670 | 6420 | 4680 | 5330 | 48
6 | CCC(C(=O)N[C@@H](CC(=O)O)C(=O)CSCc1ccccc1)n1ccnc(NCCn2cccn2)c1=O (stereo not given in full) | 990 | 2260 | > 10000 | 7090 | 82
7 | CCC(C(=O)N[C@@H](CC(=O)O)C(=O)CNCN(C)C)n1ccnc(NCc2nonc2C)c1=O (stereo not given in full) | 890 | > 10000 | 310 | 2640 | 42
8 | CCC(C(=O)N[C@@H](CC(=O)O)C(=O)CNCN1C2CCC1CC2)n1ccnc(NCc2nonc2C)c1=O (stereo not given in full) | 880 | 9220 | 260 | 1450 | 23
9 | CCC(C(=O)N[C@@H](CC(=O)O)C(=O)CNCN(CC)CC)n1ccnc(NCc2nonc2C)c1=O (stereo not given in full) | 1140 | > 10000 | 3240 | 3900 | 120
10 | CC(=O)N[C@@H](CC(=O)O)C(=O)N[C@@H](CCC(=O)O)C(=O)N[C@H](C(=O)N[C@@H](CC(=O)O)C(=O)CCCc1ccccc1)C(C)C | 310 | 16 | 8 | 30000 | 0.8
11 | CCC(C(=O)N[C@@H](CC(=O)O)C(=O)c1ncc(-c2ccccc2)o1)n1ccnc(NCc2nonc2C)c1=O (stereo not given in full) | 460 | 9570 | 750 | 8390 | 63
12 | CCC(C(=O)N[C@@H](CC(=O)O)C(C)=O)n1cc(C(C)(C)C)nc(NCc2nonc2C)c1=O (stereo not given in full) | 1230 | 10000 | 480 | 5120 | 64
13 | CCC(C(=O)N[C@@H](CC(=O)O)C(=O)CSCc1ccccc1)n1ccnc(NCCc2nc(C)no2)c1=O (stereo not given in full) | 900 | 9100 | > 10000 | 15300 | 80
14 | CCC(C(=O)N[C@@H](CC(=O)O)C(=O)CNCN1CCCCC1)n1cc(C(C)(C)C)nc(NCc2nonc2C)c1=O (stereo not given in full) | 620 | > 10000 | 130 | 290 | 21
15 | CCC(C(=O)N[C@@H](CC(=O)O)C(=O)CSCc1ccccc1)n1ccnc(NCc2nonc2C)c1=O (stereo not given in full) | 220 | 2460 | 730 | 1390 | 7.9
16 | CCC(C(=O)N[C@@H](CC(=O)O)C(=O)CSCc1ccccc1)n1ccnc(NCCn2cncn2)c1=O (stereo not given in full) | 1930 | > 10000 | 9710 | 5740 | 18
17 | CCC(C(=O)N[C@@H](CC(=O)O)C(=O)CSCc1ccccc1)n1ccnc(NCc2nnc(-c3ccccc3)o2)c1=O (stereo not given in full) | 980 | 4920 | > 10000 | 52100 | 310
18 | CCC(C(=O)N[C@@H](CC(=O)O)C(=O)CNCN1CCCC1)n1ccnc(NCc2nonc2C)c1=O (stereo not given in full) | 290 | 6220 | 410 | 840 | 33
19 | CCC(C(=O)N[C@@H](CC(=O)O)C(=O)CCCc1ccccc1)n1cc(C(C)(C)C)nc(NCc2nonc2C)c1=O (stereo not given in full) | 5130 | 5280 | 140 | 1380 | 14
20 | CCC(C(=O)N[C@@H](CC(=O)O)C(=O)CSCc1ccccc1)n1ccnc(NCc2ccon2)c1=O (stereo not given in full) | 400 | 2900 | 5170 | 8560 | 46
21 | CCC(C(=O)N[C@@H](CC(=O)O)C(=O)CSCc1ccccc1)n1ccnc(NCCOC)c1=O (stereo not given in full) | 1110 | > 10000 | > 10000 | 6790 | 140
22 | CCC(C(=O)N[C@@H](CC(=O)O)C(=O)CSCc1ccccc1)n1ccnc(NCCCN2CCCC2=O)c1=O (stereo not given in full) | 1900 | 9920 | > 10000 | 50000 | 190

Stronger by IC50 [1], values ahead:

Row | IC50 [1] [nM] | IC50 [2] [nM] | IC50 [3] [nM] | IC50 [4] [nM] | IC50 [5] [nM] | Compound
23 | 190 | 6590 | 490 | 3420 | 12 | CCC(C(=O)N[C@@H](CC(=O)O)C(=O)CSCc1ccccc1)n1ccnc(NCc2cncs2)c1=O (stereo not given in full)
24 | 150 | 990 | 1000 | 3560 | 78 | CCC(C(=O)N[C@H](C=O)CC(=O)O)n1ccnc(NCc2nonc2C)c1=O (stereo not given in full)
25 | 130 | 1750 | 1130 | 3080 | 26 | CCC(C(=O)N[C@@H](CC(=O)O)C(=O)CSCc1ccccc1)n1ccnc(NCc2nccs2)c1=O (stereo not given in full)
26 | 110 | 5950 | 36 | 2.7 | 0.1 | CCCCCN(C)CNCC(=O)[C@H](CC(=O)O)NC(=O)C(CC)n1cc(C(C)(C)C)nc(NCc2nonc2C)c1=O (stereo not given in full)
27 | 110 | > 10000 | 87 | 25 | 16 | CCCCCCN(C)CNCC(=O)[C@H](CC(=O)O)NC(=O)C(CC)n1cc(C(C)(CC)CC)nc(NCc2nonc2C)c1=O (stereo not given in full)
28 | 87 | 8220 | 3280 | 30000 | 140 | CCC(C(=O)N[C@@H](CC(=O)O)C(=O)CSCc1ccccc1)n1ccnc(NCC2COc3ccccc3O2)c1=O (stereo not given in full)
29 | 65 | 2090 | 810 | 4560 | 36 | CCC(C(=O)N[C@@H](CC(=O)O)C(=O)CSCc1ccccc1)n1ccnc(NCc2cccs2)c1=O (stereo not given in full)
30 | 64 | 9260 | 1040 | 1200 | 14 | CCC(C(=O)N[C@@H](CC(=O)O)C(=O)CN[C@@H](C)c1ccccc1)n1ccnc(NCc2nonc2C)c1=O (stereo not given in full)
31 | 63 | 9040 | 65 | 4.8 | 13 | CCCCCCN(C)CNCC(=O)[C@H](CC(=O)O)NC(=O)C(CC)n1cc(C(C)C)nc(NCc2nonc2C)c1=O (stereo not given in full)
32 | 60 | 220 | 10 | 5200 | 0.3 | CC[C@@H](C(=O)N[C@@H](CC(=O)O)C(=O)CSCc1ccccc1)n1cccc(NC(=O)[C@H](CC(=O)O)NC(C)=O)c1=O
33 | 48 | > 10000 | 110 | 300 | 13 | CCCCCN(C)CNCC(=O)[C@H](CC(=O)O)NC(=O)C(CC)n1ccnc(NCc2nonc2C)c1=O (stereo not given in full)
34 | 47 | 6020 | 840 | 1620 | 56 | CCC(C(=O)N[C@@H](CC(=O)O)C(=O)CNCN1CCC(Cc2ccccc2)CC1)n1ccnc(NCc2nonc2C)c1=O (stereo not given in full)
35 | 25 | 9540 | 600 | 78 | 6 | CCCCCCN(C)CNCC(=O)[C@H](CC(=O)O)NC(=O)C(CC)n1cc(CC)nc(NCc2nonc2C)c1=O (stereo not given in full)
36 | 13 | 7380 | 83 | 1250 | 13 | CCC(C(=O)N[C@@H](CC(=O)O)C(=O)CNCN1CCc2ccccc2C1)n1ccnc(NCc2nonc2C)c1=O (stereo not given in full)
37 | 8.7 | 4290 | 130 | 1520 | 14 | CCC(C(=O)N[C@@H](CC(=O)O)C(=O)CNCN1Cc2ccccc2C1)n1ccnc(NCc2nonc2C)c1=O (stereo not given in full)
